GI50, IC50 and Activity data for 16 compounds are collected here from ChEMBL document CHEMBL3352523, “Synthesis and biological evaluation of podophyllotoxin congeners as tubulin polymerization inhibitors” (Bioorg Med Chem, 2014).

In one assay the test system is MCF7. The assay can be described thus: Antiproliferative activity against human MCF7 cells assessed as growth inhibition after 48 hrs by SRB assay. It counts as functional. The conditions noted are these: MCF7, 48 h. A general note: In SRB staining, fixed cells bind dye roughly in proportion to their protein.
Assay [1] is described as follows: (§1) Antiproliferative activity against human MIAPaCa2 cells assessed as growth inhibition after 48 hrs by SRB assay. It counts as functional. The conditions noted are these: MIA PaCa-2, 48 h.
Assay [2] relates to HeLa. The assay can be described thus: Antiproliferative activity against human HeLa cells assessed as growth inhibition after 48 hrs by SRB assay. It counts as functional.
Another assay deals with Tubulin (Bos taurus, UniProt Q6B856+Q862L2+Q862F3). The assay can be described thus: Inhibition of bovine brain tubulin polymerization by fluorescence analysis.
For assay [3], the system named is HeLa. The assay can be described thus: Antimitotic activity against human HeLa cells assessed as accumulation at G2/M phase at 5 uM after 24 hrs by PI staining based flow cytometry (reference value: 18.35%). It counts as functional. A general note: In flow cytometry, cells or beads pass a laser one at a time.
Assay [4] deals with HeLa. Briefly: Induction of microtubule destabilization in human HeLa cells at 5 uM after 24 hrs by immunoblot analysis. It counts as cell-based. A general note: Immunoblotting shows a protein as a band on a membrane.
Assay [5] has as its system HeLa. The assay can be described thus: Induction of microtubule depolymerization in human HeLa cells at 5 uM after 24 hrs by DAPI staining. The assay is classed as cell-based.
The next assay relates to MIA PaCa-2. Described as §1. The assay is classed as functional.

Activity calls are given as the source filed them. The rule behind the calls is not given here. Bounds are passed on as bounds.

For the compound `COC(=O)[C@H]1C(c2nc3cc(Cl)c(Cl)cc3[nH]2)=Cc2cc3c(cc2[C@H]1c1cc(OC)c(OC)c(OC)c1)OCO3`, the 50% growth inhibitory concentration (GI50) with MCF7 was determined as 580 nM; in assay [1], 3200 nM; in the assay on HeLa [2], 19700 nM.

For the compound `COC(=O)[C@H]1C(c2nc3ccc(Cl)cc3[nH]2)=Cc2cc3c(cc2[C@H]1c1cc(OC)c(OC)c(OC)c1)OCO3`, the GI50 was 2090 nM with MCF7, 1300 nM in assay [1] and 2160 nM with HeLa [2].

Regarding `COc1cc([C@@H]2c3cc4c(cc3[C@@H](O[C@@H]3O[C@@H]5CO[C@@H](C)O[C@H]5[C@H](O)[C@H]3O)[C@H]3COC(=O)[C@H]23)OCO4)cc(OC)c1O` [ETOPOSIDE], the 50% growth inhibitory concentration (GI50) came to 250 nM in the assay with MCF7, 1100 nM in assay [1] and 620 nM in the assay on HeLa [2].

For the compound `COC(=O)[C@H]1C(c2nc3ccccc3[nH]2)=Cc2cc3c(cc2[C@H]1c1cc(OC)c(OC)c(OC)c1)OCO3`, the concentration for 50% growth inhibition (GI50) in the assay on MCF7 is 200 nM; in assay [1], 1200 nM; in the assay on HeLa [2], 200 nM. The same compound showed an IC50 at Tubulin of 1290 nM. Further, the Activity in the assay with HeLa [3] came out at 56.05%.

As for `COC(=O)[C@H]1C(c2nc3cc(C(F)(F)F)cc(Br)c3[nH]2)=Cc2cc3c(cc2[C@H]1c1cc(OC)c(OC)c(OC)c1)OCO3`, the GI50 in the assay on MCF7 is 2100 nM; in assay [1], 3100 nM; with HeLa [2], 6400 nM.

Turning to `COC(=O)[C@H]1C(c2nc3ccc(F)cc3[nH]2)=Cc2cc3c(cc2[C@H]1c1cc(OC)c(OC)c(OC)c1)OCO3`, the GI50 with MCF7 was 20 nM; in assay [1], 3900 nM; in the assay with HeLa [2], 4300 nM.

For the compound `COC(=O)[C@H]1C(c2nc3ccc(C)cc3[nH]2)=Cc2cc3c(cc2[C@H]1c1cc(OC)c(OC)c(OC)c1)OCO3`, the results for the GI50 (with MCF7; in assay [1]; in the assay on HeLa [2]) were 3070 nM, 18100 nM and 2800 nM, respectively.

On to `COC(=O)[C@H]1C(c2nc3ccc(OC)cc3[nH]2)=Cc2cc3c(cc2[C@H]1c1cc(OC)c(OC)c(OC)c1)OCO3`, for which the GI50 was found to be 2100 nM in the assay with MCF7, 1600 nM in assay [1] and 1040 nM in the assay on HeLa [2]. Besides, the result in the assay on HeLa [4] and in the assay on HeLa [5] was Active. Besides, the IC50 at Tubulin came to 910 nM. Further, in the assay on HeLa [3], the Activity is reported as 68.91%.

For `COC(=O)[C@H]1C(c2nc3ccc(F)c(Cl)c3[nH]2)=Cc2cc3c(cc2[C@H]1c1cc(OC)c(OC)c(OC)c1)OCO3`, the concentration for 50% growth inhibition (GI50) with MCF7 came out at 2300 nM; with HeLa [2], 24200 nM. Further, in the assay on MIA PaCa-2, the GI50 entry was “inactive”.

Regarding `COc1cc([C@@H]2c3cc4c(cc3[C@H](O)[C@H]3COC(=O)[C@H]23)OCO4)cc(OC)c1OC` [PODOFILOX], the concentration for 50% growth inhibition (GI50) in the assay on MCF7 amounted to 310 nM; in assay [1], 510 nM; in the assay with HeLa [2] it was 740 nM.

Turning to `COC(=O)[C@H]1C(c2nc3cc(C)c(C)cc3[nH]2)=Cc2cc3c(cc2[C@H]1c1cc(OC)c(OC)c(OC)c1)OCO3`, the 50% growth inhibitory concentration (GI50) with MCF7 was determined as 160 nM; in assay [1], 1500 nM; with HeLa [2], 3600 nM.

`COC(=O)[C@H]1C(c2nc3ccc(C(F)(F)F)cc3[nH]2)=Cc2cc3c(cc2[C@H]1c1cc(OC)c(OC)c(OC)c1)OCO3`: the GI50 was 4800 nM in the assay with MCF7 and 5080 nM in the assay on HeLa [2]. In addition, the GI50 entry with MIA PaCa-2 was “inactive”.

With `COC(=O)[C@H]1C(c2nc3cc4ccccc4cc3[nH]2)=Cc2cc3c(cc2[C@H]1c1cc(OC)c(OC)c(OC)c1)OCO3`, the results for the concentration for 50% growth inhibition (GI50) (with MCF7; in assay [1]; in the assay on HeLa [2]) were 1200 nM, 2560 nM and 3800 nM, respectively.

Turning to `COC(=O)[C@H]1C(C=O)=Cc2cc3c(cc2[C@H]1c1cc(OC)c(OC)c(OC)c1)OCO3`, the GI50 stood at 910 nM in the assay with MCF7, 730 nM in assay [1] and 690 nM in the assay on HeLa [2].

In the case of `COC(=O)Nc1nc2cc(C(=O)c3cccs3)ccc2[nH]1` [NOCODAZOLE], the concentration for 50% growth inhibition (GI50) in the assay on MCF7 amounted to 940 nM; in assay [1], 950 nM; with HeLa [2], 810 nM.

In the case of `COC(=O)[C@H]1C(c2nc3ccc(Br)cc3[nH]2)=Cc2cc3c(cc2[C@H]1c1cc(OC)c(OC)c(OC)c1)OCO3`, the GI50 was 540 nM in the assay on MCF7, less than 10 nM in assay [1] and 210 nM in the assay on HeLa [2]. For the same compound, the result with HeLa [4] and in the assay on HeLa [5] was Active. This compound also came in with an IC50 against Tubulin of 860 nM. Also, the Activity in the assay on HeLa [3] is recorded as 73.96%.

By GI50 is commonly meant the concentration at which growth is held to half of that of the control. The term IC50 denotes the concentration needed to halve the response being measured.
